We go through 25 compounds from patent publication US10130633B2, “Compounds” (BAYER PHARMA AKTIENGESELLSCHAFT, priority 2013, dated 2018).

For assay [1], the system named is constitutive active colorectal cancer cell (CRC) Wnt pathway. The experiment in a line: HCT116 TOPFlash cellular reporter assay (Super TopFlash luciferase), constitutive active Wnt pathway. The assay is classed as cell-based. The conditions noted are these: HCT116 TOP reporter cells, 36 hours incubation, luciferase expression. As for the experimental part: In order to discover and characterize small molecules which inhibit the constitutive active colorectal cancer cell (CRC) Wnt pathway, a cellular reporter assay was employed. […] Stable transfectants were generated by cotransfection with pcDNA3 and selection of stable transfected cells with 1 mg/ml G418.

In assay [2] the test system is HCT116 FOP control reporter cell line. The experiment in a line: HCT116 FOPFlash control reporter assay (FOP control vector, non-functional TCF elements). To be noted: HCT116 FOP control reporter cells, 36 hours incubation, luciferase expression. It is filed as cell-based. From the text: In a parallel approach, HCT116 cells were cotransfected with the FOP control vector and pcDNA3. The FOP vector is identical to the TOP construct, but it contains instead of functional TCF elements a randomized, non-functional sequence. For this transfection a stable transfected cell line was generated as well.
(In general: In a reporter assay the amount or activity of a reporter protein is the signal.)

As to `CC(C(=O)Nc1cc(C(=O)Nc2ccc(-c3cc(F)cc(F)c3)nc2)ccc1OC(F)(F)F)N1C[C@@H]2C[C@H]1CO2` (relative stereo) [Example 181, N-[6-(3,5-difluorophenyl)pyridin-3-yl]-3-({(2S*)-2-[(1S,4S)-2-oxa-5-azabicyclo[2.2.1]hept-5-yl]propanoyl}amino)-4-(trifluoromethoxy)benzamide], the IC50 (as a rule, the concentration needed to halve the response being measured) in assay [1] was 53 nM; in assay [2], ≥ 50000 nM.

As to `Cc1ccc(-c2nnc(NC(=O)c3ccc(OC(F)(F)F)c(NC(=O)CN4CCN(C)CC4)c3)s2)cc1` [Example 102, N-[5-(4-methylphenyl)-1,3,4-thiadiazol-2-yl]-3-{[(4-methylpiperazin-1-yl)acetyl]amino}-4-(trifluoromethoxy)benzamide], the IC50 in assay [1] (Homo sapiens, HCT-116, 36 h) is 458 nM; in assay [2] (Homo sapiens, HCT-116, 36 h) it was 19500 nM.

With `O=C(CN1CCN(C2CC2)CC1)Nc1cc(C(=O)Nc2nnc(-c3ccccc3)s2)ccc1Br` [Example 253, 4-bromo-3-{[(4-cyclopropylpiperazin-1-yl)acetyl]amino}-N-(5-phenyl-1,3,4-thiadiazol-2-yl)benzamide], the IC50 in assay [1] (Homo sapiens, HCT-116, 36 h) is 4040 nM; in assay [2] (Homo sapiens, HCT-116, 36 h), ≥ 50000 nM.

Turning to `CC(C(=O)Nc1cc(C(=O)Nc2ccc(-c3cc(F)cc(F)c3)nc2)ccc1OC(F)(F)F)N1CC2CCC(C1)O2` (centres unmarked) [Example 194, N-[6-(3,5-difluorophenyl)pyridin-3-yl]-3-{[2-(8-oxa-3-azabicyclo[3.2.1]oct-3-yl)propanoyl]amino}-4-(trifluoromethoxy)benzamide], the IC50 turned out to be 39.9 nM in assay [1] and 35000 nM in assay [2].

Consider `Cc1ccccc1-c1nnc(NC(=O)c2ccc(OC(F)(F)F)c(NC(=O)CN3CCOCC3)c2)s1` [Example 98, N-[5-(2-methylphenyl)-1,3,4-thiadiazol-2-yl]-3-[(morpholin-4-ylacetyl)amino]-4-(trifluoromethoxy)benzamide], for which the IC50 in assay [1] (Homo sapiens, HCT-116, 36 h) was 87 nM; in assay [2] (Homo sapiens, HCT-116, 36 h), 26400 nM.

Regarding `CN1CCN(CC(=O)Nc2cc(C(=O)Nc3nnc(-c4ccccc4)s3)ccc2C#N)CC1` [Example 174, 4-cyano-3-{[(4-methylpiperazin-1-yl)acetyl]amino}-N-(5-phenyl-1,3,4-thiadiazol-2-yl)benzamide], the IC50 in assay [1] (Homo sapiens, HCT-116, 36 h) was 3800 nM; in assay [2] (Homo sapiens, HCT-116, 36 h), ≥ 50000 nM.

On to `COc1ccc(NC(=O)c2ncc(-c3ccccc3)s2)cc1NC(=O)CN1CCOCC1` [Example 23, N-{4-methoxy-3-[(morpholin-4-ylacetyl)amino]phenyl}-5-phenyl-1,3-thiazole-2-carboxamide], for which the IC50 in assay [1] (Homo sapiens, HCT-116, 36 h) was 98 nM; in assay [2] (Homo sapiens, HCT-116, 36 h), ≥ 50000 nM.

On to `CN(C)C1(C(=O)Nc2cc(C(=O)Nc3ccc(-c4ccccc4F)nc3)ccc2OC(F)(F)F)CC1` [Example 179, 3-({[1-(dimethylamino)cyclopropyl]carbonyl}amino)-N-[6-(2-fluorophenyl)pyridin-3-yl]-4-(trifluoromethoxy)benzamide], for which the IC50 in assay [1] (Homo sapiens, HCT-116, 36 h) is 362 nM; in assay [2] (Homo sapiens, HCT-116, 36 h) it was ≥ 50000 nM.

For `CC(C(=O)Nc1cc(C(=O)Nc2nnc(-c3ccccc3)s2)ccc1C(F)(F)F)N1CCN(C)CC1` (centres unmarked) [Example 129, 3-{[2-(4-methylpiperazin-1-yl)propanoyl]amino}-N-(5-phenyl-1,3,4-thiadiazol-2-yl)-4-(trifluoromethyl)benzamide], the 50% inhibitory concentration (IC50) is 900 nM in assay [1] (Homo sapiens, HCT-116, 36 h) and ≥ 50000 nM in assay [2] (Homo sapiens, HCT-116, 36 h).

`O=C(CN1C[C@@H]2C[C@H]1CO2)Nc1cc(C(=O)Nc2ccc(-c3cc(F)cc(F)c3)nc2)ccc1OC(F)(F)F` [Example 214, N-[6-(3,5-difluorophenyl)pyridin-3-yl]-3-{[(1S,4S)-2-oxa-5-azabicyclo[2.2.1]hept-5-ylacetyl]amino}-4-(trifluoromethoxy)benzamide]: the IC50 came out at 375 nM in assay [1] (Homo sapiens, HCT-116, 36 h) and 6300 nM in assay [2] (Homo sapiens, HCT-116, 36 h).

On to `CN1CCCN(CC(=O)Nc2cc(C(=O)Nc3nnc(-c4ccccc4)s3)ccc2OC(F)(F)F)CC1` [Example 168, 3-{[(4-methyl-1,4-diazepan-1-yl)acetyl]amino}-N-(5-phenyl-1,3,4-thiadiazol-2-yl)-4-(trifluoromethoxy)benzamide], for which the IC50 in assay [1] (Homo sapiens, HCT-116, 36 h) was 1080 nM; in assay [2] (Homo sapiens, HCT-116, 36 h), 12000 nM.

For the compound `CC(C(=O)Nc1cc(C(=O)Nc2ccc(-c3ccc(O)cc3F)nc2)ccc1OC(F)(F)F)N1CCOCC1` (centres unmarked) [Example 109, N-[6-(2-fluoro-4-hydroxyphenyl)pyridin-3-yl]-3-{[2-(morpholin-4-yl)propanoyl]amino}-4-(trifluoromethoxy)benzamide], the 50% inhibitory concentration (IC50) in assay [1] (Homo sapiens, HCT-116, 36 h) was determined as 208 nM; in assay [2] (Homo sapiens, HCT-116, 36 h), 29900 nM.

Consider `CC(C(=O)Nc1cc(NC(=O)c2ccc(-c3cc(F)cc(F)c3)nc2)ccc1OC(F)(F)F)N1C[C@@H]2C[C@H]1CO2` (stereo partly drawn) [Example 198, 6-(3,5-difluorophenyl)-N-[3-({2-[(1S,4S)-2-oxa-5-azabicyclo[2.2.1]hept-5-yl]propanoyl}amino)-4-(trifluoromethoxy)phenyl] nicotinamide], for which the IC50 in assay [1] (Homo sapiens, HCT-116, 36 h) is 144 nM; in assay [2] (Homo sapiens, HCT-116, 36 h), 15000 nM.

On to `Cn1nc(C(=O)Nc2ccc(OC(F)(F)F)c(NC(=O)CN3CCOCC3)c2)cc1-c1ccccc1` [Example 123, 1-methyl-N-{3-[(morpholin-4-ylacetyl)amino]-4-(trifluoromethoxy)phenyl}-5-phenyl-1H-pyrazole-3-carboxamide], for which the IC50 in assay [1] (Homo sapiens, HCT-116, 36 h) was 560 nM; in assay [2] (Homo sapiens, HCT-116, 36 h), ≥ 50000 nM.

For `CN1C2CCC1CN(CC(=O)Nc1cc(C(=O)Nc3ccc(-c4ccccc4F)nc3)ccc1OC(F)(F)F)C2` [Example 166, N-[6-(2-fluorophenyl)pyridin-3-yl]-3-{[(8-methyl-3,8-diazabicyclo[3.2.1]oct-3-yl)acetyl]amino}-4-(trifluoromethoxy)benzamide], the IC50 stood at 148 nM in assay [1] (Homo sapiens, HCT-116, 36 h) and 3900 nM in assay [2] (Homo sapiens, HCT-116, 36 h).

Regarding `CN1CCN(C2(C(=O)Nc3cc(C(=O)Nc4ccc(-c5ccccc5F)nc4)ccc3OC(F)(F)F)CC2)CC1` [Example 236, N-[6-(2-fluorophenyl)pyridin-3-yl]-3-({[1-(4-methylpiperazin-1-yl)cyclopropyl]carbonyl}amino)-4-(trifluoromethoxy)benzamide], the IC50 in assay [1] (Homo sapiens, HCT-116, 36 h) was 276 nM; in assay [2] (Homo sapiens, HCT-116, 36 h), ≥ 50000 nM.

As for `O=C(Nc1nnc(-c2ccccc2)s1)c1ccc(F)c(NC(=O)C2(N3CCOCC3)CC2)c1` [Example 78, 4-fluoro-3-({[1-(morpholin-4-yl)cyclopropyl]carbonyl}amino)-N-(5-phenyl-1,3,4-thiadiazol-2-yl)benzamide], the IC50 is 508 nM in assay [1] (Homo sapiens, HCT-116, 36 h) and ≥ 50000 nM in assay [2] (Homo sapiens, HCT-116, 36 h).

Regarding `CC(C(=O)Nc1cc(C(=O)Nc2ccc(-c3cc(F)cc(F)c3)nc2)ccc1OC(F)(F)F)N1C[C@@H]2C[C@H]1CO2` (stereo partly drawn) [Example 223, N-[6-(3,5-difluorophenyl)pyridin-3-yl]-3-({2-[(1S,4S)-2-oxa-5-azabicyclo[2.2.1]hept-5-yl]propanoyl}amino)-4-(trifluoromethoxy)benzamide], the IC50 stood at 238 nM in assay [1] (Homo sapiens, HCT-116, 36 h) and 17100 nM in assay [2] (Homo sapiens, HCT-116, 36 h).

`O=C(Nc1nnc(-c2ccccc2)s1)c1ccc(O)c(NC(=O)C2(N3CCOCC3)CC2)c1` [Example 93, 4-hydroxy-3-({[1-(morpholin-4-yl)cyclopropyl]carbonyl}amino)-N-(5-phenyl-1,3,4-thiadiazol-2-yl)benzamide]: the IC50 in assay [1] (Homo sapiens, HCT-116, 36 h) is 240 nM; in assay [2] (Homo sapiens, HCT-116, 36 h), ≥ 50000 nM.

For `CN1CCN(CC(=O)Nc2cc(C(=O)Nc3nnc(-c4ccccc4)s3)ccc2C(F)(F)F)CC1` [Example 59, 3-{[(4-methylpiperazin-1-yl)acetyl]amino}-N-(5-phenyl-1,3,4-thiadiazol-2-yl)-4-(trifluoromethyl)benzamide], the IC50 in assay [1] (Homo sapiens, HCT-116, 36 h) is 385 nM; in assay [2] (Homo sapiens, HCT-116, 36 h) it was ≥ 50000 nM.

Regarding `CC(C(=O)Nc1cc(NC(=O)c2ccc(-c3cccc(F)c3)nc2)ccc1OC(F)(F)F)N1CC2CCC(C1)O2` (centres unmarked) [Example 220, 6-(3-fluorophenyl)-N-[3-{[2-(8-oxa-3-azabicyclo[3.2.1]oct-3-yl)propanoyl]amino}-4-(trifluoromethoxy)phenyl] nicotinamide], the values for the IC50 in assay [1] and in assay [2] were 375 nM and 13000 nM, respectively.

Turning to `CN1CCN(CC(=O)Nc2cc(C(=O)Nc3nnc(-c4ccccc4C(F)(F)F)s3)ccc2OC(F)(F)F)CC1` [Example 270, 3-{[(4-methylpiperazin-1-yl)acetyl]amino}-4-(trifluoromethoxy)-N-{5-[2-(trifluoromethyl)phenyl]-1,3,4-thiadiazol-2-yl}benzamide], the IC50 in assay [1] (Homo sapiens, HCT-116, 36 h) is 390 nM; in assay [2] (Homo sapiens, HCT-116, 36 h), ≥ 50000 nM.

As for `O=C(CN1CC2CCC(C1)O2)Nc1cc(C(=O)Nc2nnc(-c3ccccc3)s2)ccc1OC(F)(F)F` [Example 240, 3-[(8-oxa-3-azabicyclo[3.2.1]oct-3-ylacetyl)amino]-N-(5-phenyl-1,3,4-thiadiazol-2-yl)-4-(trifluoromethoxy)benzamide], the IC50 was 1180 nM in assay [1] (Homo sapiens, HCT-116, 36 h) and ≥ 50000 nM in assay [2] (Homo sapiens, HCT-116, 36 h).

In the case of `CC(C(=O)Nc1cc(C(=O)Nc2ccc(-c3cc(F)cc(F)c3)nc2)ccc1OC(F)(F)F)N1CCOCC1` (centres unmarked) [Example 245, N-[6-(3,5-difluorophenyl)pyridin-3-yl]-3-{[2-(morpholin-4-yl)propanoyl]amino}-4-(trifluoromethoxy)benzamide], the IC50 in assay [1] is 7.85 nM; in assay [2], 5200 nM.

For the compound `CC(C(=O)Nc1cc(C(=O)Nc2ccc(-c3cccc(F)c3)nc2)ccc1OC(F)(F)F)N1C[C@@H]2C[C@H]1CO2` (relative stereo) [Example 243, N-[6-(3-fluorophenyl)pyridin-3-yl]-3-({(2R*)-2-[(1S,4S)-2-oxa-5-azabicyclo[2.2.1]hept-5-yl]propanoyl}amino)-4-(trifluoromethoxy)benzamide], the IC50 in assay [1] came out at 28 nM; in assay [2], 7700 nM.
